According to patent US20020090352A1, “Compositions and methods for use in modulating immune system function” (priority 2000, published 2002):
“Also recorded” adds a separate entry of the source. Marks after values point to notes of the source that are not given here.

Key:
[1] = test system: immature LC (Langerhans cells); assay: Apoptosis of immature LC, flow cytometry of PI stained nuclei (sub 2N particles) / annexin V; format: cell-based, human; details: for induction of apoptosis / death of immature LC by the substance on its own: no TNFα
RARα-RXRα heterodimer = target: T1, RARα-RXRα heterodimer (Homo sapiens, UniProt P10276+P19793); details: retinoid activity, transient transfection; cited from earlier work; note: key: '+' = agonist; '(+)' = weak agonist; '−' = antagonist; '0' = absence of agonist and antagonist activities
T1 construct: expressed in transfected cells
T1 sequence (P10276 1-462): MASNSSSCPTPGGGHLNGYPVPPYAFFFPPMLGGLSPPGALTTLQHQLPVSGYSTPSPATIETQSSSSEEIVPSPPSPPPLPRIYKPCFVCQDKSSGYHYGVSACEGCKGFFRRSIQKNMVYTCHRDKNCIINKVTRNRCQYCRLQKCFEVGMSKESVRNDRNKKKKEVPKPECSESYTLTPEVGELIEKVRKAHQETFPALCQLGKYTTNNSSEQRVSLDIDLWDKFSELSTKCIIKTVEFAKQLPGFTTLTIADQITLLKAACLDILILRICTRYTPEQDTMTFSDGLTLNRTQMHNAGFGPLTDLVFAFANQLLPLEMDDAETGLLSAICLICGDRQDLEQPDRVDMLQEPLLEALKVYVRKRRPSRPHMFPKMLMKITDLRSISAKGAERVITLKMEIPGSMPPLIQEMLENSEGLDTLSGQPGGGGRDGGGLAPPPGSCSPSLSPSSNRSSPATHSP
T1 sequence (P19793 1-462): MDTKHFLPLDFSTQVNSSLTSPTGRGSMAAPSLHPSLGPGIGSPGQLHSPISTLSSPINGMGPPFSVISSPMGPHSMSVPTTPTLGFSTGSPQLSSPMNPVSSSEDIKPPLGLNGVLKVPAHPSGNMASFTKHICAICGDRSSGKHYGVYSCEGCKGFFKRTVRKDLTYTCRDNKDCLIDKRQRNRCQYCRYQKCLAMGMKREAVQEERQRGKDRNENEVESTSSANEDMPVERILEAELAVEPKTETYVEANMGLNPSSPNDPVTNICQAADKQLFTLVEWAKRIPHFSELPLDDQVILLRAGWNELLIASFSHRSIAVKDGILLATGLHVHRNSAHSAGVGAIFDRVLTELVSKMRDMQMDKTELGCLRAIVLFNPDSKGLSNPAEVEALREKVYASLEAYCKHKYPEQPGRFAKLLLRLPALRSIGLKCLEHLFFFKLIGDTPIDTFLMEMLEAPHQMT

RARγ AF2 = target: T2, RARγ AF2 (Homo sapiens, UniProt P13631); details: retinoid activity, reporter cells; cited from earlier work; note: key: '+' = agonist; '(+)' = weak agonist; '−' = antagonist; '0' = absence of agonist and antagonist activities
T2 construct: expressed in transfected cells
T2 sequence (P13631 185-419 limits assumed): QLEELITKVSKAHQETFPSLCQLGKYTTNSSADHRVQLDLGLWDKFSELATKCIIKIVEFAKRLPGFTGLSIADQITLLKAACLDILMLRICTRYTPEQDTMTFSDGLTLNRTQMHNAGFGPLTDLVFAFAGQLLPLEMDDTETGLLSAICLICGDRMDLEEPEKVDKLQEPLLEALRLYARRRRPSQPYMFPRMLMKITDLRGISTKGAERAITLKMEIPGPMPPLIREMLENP

RARα AF2 = target: T3, RARα AF2 (Homo sapiens, UniProt P10276); details: retinoid activity, reporter cells; cited from earlier work; note: key: '+' = agonist; '(+)' = weak agonist; '−' = antagonist; '0' = absence of agonist and antagonist activities
T3 construct: expressed in transfected cells
T3 sequence (P10276 183-417 limits assumed): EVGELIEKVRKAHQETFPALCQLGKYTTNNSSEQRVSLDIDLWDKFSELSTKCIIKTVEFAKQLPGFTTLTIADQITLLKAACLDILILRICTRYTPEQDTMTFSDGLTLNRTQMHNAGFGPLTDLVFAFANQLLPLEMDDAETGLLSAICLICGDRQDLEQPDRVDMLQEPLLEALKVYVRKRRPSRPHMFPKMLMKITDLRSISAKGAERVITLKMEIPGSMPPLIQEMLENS

RARβ AF2 = target: T4, RARβ AF2 (Homo sapiens, UniProt P10826); details: retinoid activity, reporter cells; cited from earlier work; note: key: '+' = agonist; '(+)' = weak agonist; '−' = antagonist; '0' = absence of agonist and antagonist activities
T4 construct: expressed in transfected cells
T4 sequence (P10826 183-417 limits assumed): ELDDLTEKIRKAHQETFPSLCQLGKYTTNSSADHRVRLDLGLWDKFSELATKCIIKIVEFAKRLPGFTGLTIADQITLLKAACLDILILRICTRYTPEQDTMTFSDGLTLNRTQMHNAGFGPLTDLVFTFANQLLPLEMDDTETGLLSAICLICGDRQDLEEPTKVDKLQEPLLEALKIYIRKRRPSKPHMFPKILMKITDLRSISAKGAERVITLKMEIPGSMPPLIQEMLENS

[2] = test system: immature LC (Langerhans cells); assay: Activation of immature LC: HLA-DR and CD86 expression by flow cytometry; format: cell-based, human; set-up: class II or CD86 upregulation on immature LC: dose or concentration left out as unconfirmed; details: for activation of immature LC (class II / CD86, DRhi-CD86hi) in the presence of TNFα: TNFα 1-10 ng/ml; for class II or CD86 upregulation on immature LC: in the absence or at low concentrations of TNFα
Experimental: Immature LC were cultured with retinol or vehicle and/or TNFα for 40 h. Cells were washed and incubated with HLA-DR-FITC and CD86-PE or isotype controls for 15 min at 4° C. 10^4 events were then analyzed with a FACScalibur (Becton Dickinson) using CellQuest software (Becton Dickinson). % are given for DRhi CD86hi cells gated as indicated. Data are representative of three experiments on different donors.
FIG. 3A: Day 6 immature LC were cultured for 40 h with TNFα and/or retinoids or vehicle as indicated. Cells were washed and stained with HLA-DR-FITC and CD86-PE or isotype controls for 15 min at 4° C. 10^4 events were then analyzed with a FACScalibur (Becton Dickinson) using CellQuest software (Becton Dickinson). Data are given for DRhi/CD86 hi cells gated as indicated, and are representative of 10 experiments on different donors.
Percentages of DRhi/CD86 hi cells are represented and results are expressed as the mean±SD of at last three experiments on different donors.
Flow Cytometry Analysis. 1×10^5 cells were incubated in 96-well plates (Becton Dickinson Labware, Franklin Lakes, N.J.) for 15 min at 4 ° C. in PBS, 2% human AB serum, and 0.01 M NaN3, with FITC-conjugated anti-DR (Immunotech, Marseille, France) and PE-conjugated CD86 (Pharmingen, San Diego, Calif.) at the appropriate concentration, or with control isotype-matched irrelevant mAbs at the same concentration. After washing, 10^4 events were analyzed with a FACScalibur (Becton Dickinson Immunocytometry Systems, Mountain View, Calif.) using CellQuest software.

RXRα homodimer [(RXR)2] = target: T5, RXRα homodimer [(RXR)2] (Homo sapiens, UniProt P19793); details: retinoid activity, transient transfection; cited from earlier work
T5 construct: expressed in transfected cells
T5 sequence (P19793 1-462): T1 sequence (P19793 1-462)

RXR AF2 = details: retinoid activity, reporter cells; cited from earlier work
NF-κB complexes = assay: Electrophoretic mobility shift assay of nuclear NF-κB complexes in immature LC; format: cell-based, human; details: retinoid 1 μM 6 h, then TNFα 50 ng/ml 30 min; result in words
T-cells stimulated by LC = format: cell-based, human
in vitro = details: human
[3] = 1 nM, two days in culture, mean ± SD
[4] = 10 nM, two days in culture, mean ± SD
[5] = 100 nM, two days in culture, mean ± SD
[6] = 1 μM, two days in culture, mean ± SD
[7] = Table 3C, retinoid 1 μM in medium, no inhibitor

| SMILES | percentage of apoptotic (<2N) particles [1, 3] | percentage of apoptotic (<2N) particles [1, 4] | percentage of apoptotic (<2N) particles ([1]; 100 nM SR11237 + 1 nM ligand) | percentage of apoptotic (<2N) particles ([1]; 100 nM SR11237 + 10 nM ligand) | percentage of apoptotic (<2N) particles ([1]; 100 nM SR11237 + 100 nM ligand) | percentage of apoptotic (<2N) particles ([1]; 100 nM SR11237 + 1 μM ligand) | percentage of apoptotic (<2N) particles [1, 5] | percentage of apoptotic (<2N) particles [1, 6] | percentage of apoptotic (<2N) particles [1, 7] [%] | induction of apoptosis / death of immature LC by the substance on its own ([1]; result in words) | RARα-RXR DR5 (RARα-RXRα heterodimer) | RARγ AF2 (RARγ AF2) | RARα AF2 (RARα AF2) | RARβ AF2 (RARβ AF2) | activation of immature LC (class II / CD86, DRhi-CD86hi) in the presence of TNFα ([2]; result in words) | (RXR)2 AF2 (RXRα homodimer [(RXR)2]) | RXR AF2 (RXR AF2) | nuclear translocation / DNA-binding activity of NF-κB complexes with TNFα (NF-κB complexes) | enhancement of antigen presentation to antigen-specific T-cells in synergy with TNFα (T-cells stimulated by LC) | class II or CD86 upregulation on immature LC [2] | also measured |
| --- | --- | --- | --- | --- | --- | --- | --- | --- | --- | --- | --- | --- | --- | --- | --- | --- | --- | --- | --- | --- | --- |
| CC1(C)C(=O)C(C)(C)c2cc(C(=O)Nc3ccc(C(=O)O)cc3)ccc21 [Compound I, 4-[[(2,3-Dihydro-1,1,3,3-tetramethyl-2-oxo-1H-inden-5-yl)carbonyl]amino]benzoic acid] | ≦5% | ≦5% | 6 ± 3% | 25 ± 10^(a) % | 32 ± 7% | 47 ± 10% | 27 ± 9% | 37 ± 7% | 38 ± 8 | apoptosis was induced | + | 0 | + | 0 | upregulate | 0 | 0 | synergize with TNFα |  |  | percentage of apoptotic (<2N) particles ([1]; 50 nM, two days in culture, mean ± SD): 18 ± 3^(b) %; percentage of apoptotic (<2N) particles ([1]; Table 3C, Compound I 100 nM + SR11237 100 nM in medium, no inhibitor): 38 ± 5% |
| CC1(C)CC=C(c2cnc3ccccc3c2)c2cc(C(=O)Nc3ccc(C(=O)O)cc3)ccc21 [Compound II, 4-[[[5,6-Dihydro-5,5-dimethyl-8-(3-quinolinyl)-2-naphthalenyl]carbonyl]amino]benzoic acid] | ≦5% | ≦5% | ≦5% | ≦5% | ≦5% | ≦5% | ≦5% | ≦5% |  | did not induce | − | 0 | −^(a)(b) | 0 |  | 0 | 0 |  | synergized with the RXR agonist (SR11237) |  | inhibition of retinoid-induced apoptosis / cell death of immature LC ([1]; result in words): inhibited retinoid-induced apoptosis; inhibition of retinoid-induced apoptosis / cell death of immature LC ([1]; result in words, listed as Compound H): inhibited; synergy with the RXR agonist SR11237 for TNFα-induced LC activation ([2]; result in words): synergized with the RXR agonist (SR11237) |
| CC1=C(/C=C/C(C)=C/C=C/C(C)=C/CO)C(C)(C)CCC1 [Rol, retinol] | ≦5^(a) % | ≦5% |  |  |  |  | ≦5% | 17±8% | 17 ± 8 | increased |  |  |  |  |  |  |  |  |  | did not significantly induce | allogeneic T-lymphocyte proliferation (MLR) (T-cells stimulated by LC): increase alloreactive proliferative response; cytotoxicity at 2 days, 1 μM (in vitro): 20%; cytotoxicity at 3 days, 1 μM (in vitro): 40%; minimum effective dose for significant LC activation [2]: 1 µM; synergy with IL-1β to activate LC ([2]; IL-1β 1-10 ng/ml, result in words): synergized with IL-1β; activation of immature LC (class II / CD86, DRhi-CD86hi) in the presence of TNFα ([2]; result in words, listed as Retinol): synergize with TNFα; also recorded: upregulate; activation of immature LC (class II / CD86, DRhi-CD86hi) in the presence of TNFα ([2]; result in words, listed as retinol): synergized with TNFα |
| CC1(C)CCC(C)(C)c2cc(C3(c4ccc(C(=O)O)cc4)OCCO3)ccc21 [SR11237, 4-[2-(5,6,7,8-tetrahydro-5,5,8,8-tetramethyl-2-naphthalenyl)-1,3-dioxolan-2-yl]benzoic acid, reference compound] | ≦5% | ≦5% |  |  |  |  | ≦5% | ≦5% |  | neither SR11237 (Table 3) nor BMS749 exhibited an apoptotic effect | 0 | 0 | 0 | 0 | also synergized with TNFα; also recorded: upregulate | + | + | synergize with TNFα | synergized with TNFα |  | induction of apoptosis / death of immature LC by the substance on its own ([1]; result in words, listed as SR1 1237): had no effects on its own; synergy with the pan-RXR agonist SR11237 to induce LC death ([1]; result in words): asynergistic effect on LC death induced by the selective RARα agonist |
| CC1=C(/C=C/C(C)=C/C=C/C(C)=C/C(=O)O)C(C)(C)CCC1 [tRA, all-trans retinoic acid, reference compound] | ≦5% | ≦5% |  |  |  |  | 14 ± 6^(b) % | 36 ± 10% | 38 ± 10 | induced a similar dose- and time-dependent increase in death |  | + | +^(a) | + | synergize with TNFα; also recorded: upregulate |  | 0^(a) | synergize with TNFα |  | did not significantly induce |  |
